According to ChEMBL document CHEMBL1144784, “A novel series of potent and selective ketone histone deacetylase inhibitors with antitumor activity in vivo” (J Med Chem, 2008):

What was measured:
Histone deacetylase 1 = Histone deacetylase 1 (Homo sapiens, UniProt Q13547)
Plasma [1] = experiment: Stability in rat plasma at 5 uM after 4 hrs; type: ADME, cell-free
Histone deacetylase 3 = Histone deacetylase 3 (Homo sapiens, UniProt O15379)
HeLa = experiment: Antiproliferative activity against human HeLa cells by CellTiter-Blue cell viability assay; type: functional, cell-based
HCT-116 [2] = experiment: Antiproliferative activity against human HCT116 cells by CellTiter-Blue cell viability assay; type: functional, cell-based
Plasma [3] = experiment: Stability in mouse plasma at 5 uM after 4 hrs; type: ADME, cell-free
A549 = experiment: Antiproliferative activity against human A549 cells by CellTiter-Blue cell viability assay; type: functional, cell-based
Histone deacetylase 4 [4] = biological target: T1, Histone deacetylase 4 (Homo sapiens, UniProt P56524); experiment: Inhibition of HDAC4 gain-of-function phenotype expressed in Escherichia coli
Target sequence in this assay (P56524 whole entry, looked up): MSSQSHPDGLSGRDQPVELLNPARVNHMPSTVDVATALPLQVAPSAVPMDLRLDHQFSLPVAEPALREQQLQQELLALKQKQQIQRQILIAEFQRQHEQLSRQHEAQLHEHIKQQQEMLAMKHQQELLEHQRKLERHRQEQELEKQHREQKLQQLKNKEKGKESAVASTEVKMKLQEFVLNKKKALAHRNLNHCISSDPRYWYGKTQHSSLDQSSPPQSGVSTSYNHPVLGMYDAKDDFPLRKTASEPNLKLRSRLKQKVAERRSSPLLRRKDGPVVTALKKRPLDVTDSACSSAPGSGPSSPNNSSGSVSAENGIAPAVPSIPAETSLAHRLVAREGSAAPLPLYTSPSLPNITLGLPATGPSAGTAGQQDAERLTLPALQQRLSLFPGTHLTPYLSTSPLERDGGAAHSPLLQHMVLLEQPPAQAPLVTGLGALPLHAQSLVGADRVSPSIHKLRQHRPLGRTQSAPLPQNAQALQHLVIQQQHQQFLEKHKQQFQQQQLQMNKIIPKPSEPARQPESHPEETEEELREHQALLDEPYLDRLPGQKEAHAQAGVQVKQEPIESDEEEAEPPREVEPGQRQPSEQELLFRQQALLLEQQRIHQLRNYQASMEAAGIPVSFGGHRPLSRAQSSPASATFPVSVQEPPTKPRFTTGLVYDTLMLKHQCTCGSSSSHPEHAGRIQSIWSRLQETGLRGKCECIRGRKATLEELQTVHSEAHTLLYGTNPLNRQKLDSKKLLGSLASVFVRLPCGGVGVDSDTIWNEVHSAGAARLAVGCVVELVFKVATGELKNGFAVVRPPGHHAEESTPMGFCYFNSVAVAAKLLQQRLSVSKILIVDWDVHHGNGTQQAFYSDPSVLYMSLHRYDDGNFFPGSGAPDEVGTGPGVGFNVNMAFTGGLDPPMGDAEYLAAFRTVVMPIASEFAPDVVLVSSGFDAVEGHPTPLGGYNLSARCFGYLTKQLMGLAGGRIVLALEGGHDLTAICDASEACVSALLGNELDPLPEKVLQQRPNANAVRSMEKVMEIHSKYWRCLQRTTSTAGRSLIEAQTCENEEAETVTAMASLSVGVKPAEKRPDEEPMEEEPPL

Histone deacetylase 4 [5] = biological target: T1, Histone deacetylase 4; experiment: Inhibition of HDAC4 expressed in Escherichia coli
Target sequence in this assay (P56524 whole entry): as the sequence (P56524 whole entry, looked up) above

[6] = Terminal half life in Sprague-Dawley rat; type: ADME, organism-based; conditions: in vivo
[7] = Oral bioavailability in Sprague-Dawley rat; type: ADME, organism-based; conditions: in vivo
Mus musculus [8] = experiment: Toxicity against human HCT116 cells xenografted BALB/c mouse assessed as body weight loss at 60 mg/kg, ip administered 5 days per week for 2.5 weeks; type: organism-based, HCT-116; parameters: dose 60 mg/kg, route intraperitoneal; conditions: in vivo
[9] = Clearance in Sprague-Dawley rat plasma; type: ADME, organism-based
[10] = Intrinsic clearance in human liver microsomes; type: ADME, Microsome
[11] = Intrinsic clearance in Sprague-Dawley rat liver microsomes; type: ADME, Microsome
Histone deacetylase 5 = Histone deacetylase 5 (Homo sapiens, UniProt Q9UQL6); experiment: Inhibition of HDAC5 expressed in Escherichia coli
[12] = Toxicity in ip dosed BALB/c mouse assessed as maximum tolerated dose; type: organism-based; conditions: in vivo
Plasma [13] = experiment: Stability in dog plasma at 5 uM after 4 hrs; type: ADME, cell-free, Canis lupus familiaris
G-401 = experiment: Antiproliferative activity against human G401 cells by CellTiter-Blue cell viability assay; type: functional, cell-based
Histone deacetylase 2 = Histone deacetylase 2 (Homo sapiens, UniProt Q92769)
[14] = Antiproliferative activity against human renal epithelial cells by CellTiter-Blue cell viability assay; type: ADME, cell-based
Histone deacetylase 7 = biological target: T2, Histone deacetylase 7 (Homo sapiens, UniProt Q8WUI4); experiment: Inhibition of HDAC7 expressed in Escherichia coli
T2 sequence (Q8WUI4 whole entry): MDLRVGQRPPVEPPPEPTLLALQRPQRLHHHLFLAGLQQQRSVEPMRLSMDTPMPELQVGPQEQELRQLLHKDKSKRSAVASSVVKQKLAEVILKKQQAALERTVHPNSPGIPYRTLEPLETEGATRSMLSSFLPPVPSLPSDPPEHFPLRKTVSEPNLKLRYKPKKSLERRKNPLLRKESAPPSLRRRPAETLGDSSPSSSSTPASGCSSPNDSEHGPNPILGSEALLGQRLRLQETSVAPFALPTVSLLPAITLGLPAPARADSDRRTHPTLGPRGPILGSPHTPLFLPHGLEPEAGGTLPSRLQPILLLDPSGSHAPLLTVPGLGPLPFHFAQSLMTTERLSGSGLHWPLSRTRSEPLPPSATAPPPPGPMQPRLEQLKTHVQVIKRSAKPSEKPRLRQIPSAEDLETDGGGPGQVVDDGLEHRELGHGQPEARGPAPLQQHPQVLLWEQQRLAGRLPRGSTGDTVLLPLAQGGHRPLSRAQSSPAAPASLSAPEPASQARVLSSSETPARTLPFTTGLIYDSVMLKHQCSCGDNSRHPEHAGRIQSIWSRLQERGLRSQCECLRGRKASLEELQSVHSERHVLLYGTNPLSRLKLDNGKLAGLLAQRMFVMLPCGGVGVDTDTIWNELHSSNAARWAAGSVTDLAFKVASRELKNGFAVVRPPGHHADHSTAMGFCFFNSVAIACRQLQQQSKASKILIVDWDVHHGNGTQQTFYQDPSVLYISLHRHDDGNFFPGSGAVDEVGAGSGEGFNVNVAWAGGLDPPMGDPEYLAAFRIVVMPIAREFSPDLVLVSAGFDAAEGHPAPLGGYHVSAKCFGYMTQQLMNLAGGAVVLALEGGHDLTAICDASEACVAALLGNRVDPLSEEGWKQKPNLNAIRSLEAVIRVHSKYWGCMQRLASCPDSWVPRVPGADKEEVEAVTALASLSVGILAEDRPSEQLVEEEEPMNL

A2780 = experiment: Antiproliferative activity against human A2780 cells by CellTiter-Blue cell viability assay; type: functional, cell-based
Plasma [15] = experiment: Stability in human plasma at 5 uM after 4 hrs; type: ADME, cell-free
[16] = biological target: T3, Protein deacetylase HDAC6 (Homo sapiens, UniProt Q9UBN7)
T3 sequence (Q9UBN7 whole entry): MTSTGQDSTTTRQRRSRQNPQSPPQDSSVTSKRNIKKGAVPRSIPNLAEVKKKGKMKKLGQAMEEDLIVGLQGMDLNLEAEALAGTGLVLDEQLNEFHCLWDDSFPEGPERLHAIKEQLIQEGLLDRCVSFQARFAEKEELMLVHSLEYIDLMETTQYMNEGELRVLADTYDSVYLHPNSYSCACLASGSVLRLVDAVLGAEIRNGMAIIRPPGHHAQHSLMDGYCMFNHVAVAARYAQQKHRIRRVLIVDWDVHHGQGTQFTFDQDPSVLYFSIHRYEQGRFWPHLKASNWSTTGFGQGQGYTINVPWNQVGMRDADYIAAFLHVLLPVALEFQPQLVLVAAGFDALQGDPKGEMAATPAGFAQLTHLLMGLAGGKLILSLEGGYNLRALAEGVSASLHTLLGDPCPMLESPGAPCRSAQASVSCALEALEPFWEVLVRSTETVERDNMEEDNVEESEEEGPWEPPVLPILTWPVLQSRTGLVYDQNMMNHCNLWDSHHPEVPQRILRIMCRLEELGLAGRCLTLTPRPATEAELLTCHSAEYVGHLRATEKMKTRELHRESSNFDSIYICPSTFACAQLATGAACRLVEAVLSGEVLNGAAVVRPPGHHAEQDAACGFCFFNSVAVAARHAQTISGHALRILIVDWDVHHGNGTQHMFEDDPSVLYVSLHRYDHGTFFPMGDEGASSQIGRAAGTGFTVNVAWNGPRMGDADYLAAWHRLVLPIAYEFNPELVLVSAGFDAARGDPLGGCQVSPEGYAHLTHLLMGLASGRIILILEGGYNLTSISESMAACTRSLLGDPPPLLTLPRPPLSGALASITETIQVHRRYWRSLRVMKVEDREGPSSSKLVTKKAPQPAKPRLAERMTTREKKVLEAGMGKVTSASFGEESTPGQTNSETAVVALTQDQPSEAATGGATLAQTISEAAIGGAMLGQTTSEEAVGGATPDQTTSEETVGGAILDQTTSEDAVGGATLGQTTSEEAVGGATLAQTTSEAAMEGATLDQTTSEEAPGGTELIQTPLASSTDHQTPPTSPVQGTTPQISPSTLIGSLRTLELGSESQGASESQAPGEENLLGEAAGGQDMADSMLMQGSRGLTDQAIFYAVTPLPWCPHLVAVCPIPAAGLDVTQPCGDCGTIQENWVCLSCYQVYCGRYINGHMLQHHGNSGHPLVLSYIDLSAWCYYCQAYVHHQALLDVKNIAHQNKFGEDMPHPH

Histone deacetylase 8 = biological target: T4, Histone deacetylase 8 (Homo sapiens, UniProt Q9BY41); experiment: Inhibition of HDAC8 expressed in Escherichia coli
T4 sequence (Q9BY41 whole entry): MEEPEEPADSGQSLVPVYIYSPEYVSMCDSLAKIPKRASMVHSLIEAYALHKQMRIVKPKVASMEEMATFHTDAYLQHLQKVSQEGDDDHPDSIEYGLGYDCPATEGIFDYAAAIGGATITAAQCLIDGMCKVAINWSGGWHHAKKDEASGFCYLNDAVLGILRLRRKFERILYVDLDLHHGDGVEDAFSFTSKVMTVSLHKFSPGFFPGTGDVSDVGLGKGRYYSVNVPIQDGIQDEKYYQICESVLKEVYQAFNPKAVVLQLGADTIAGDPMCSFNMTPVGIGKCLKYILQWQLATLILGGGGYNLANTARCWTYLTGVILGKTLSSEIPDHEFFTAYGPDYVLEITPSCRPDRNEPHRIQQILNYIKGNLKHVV

Mus musculus [17] = experiment: Toxicity against human HCT116 cells xenografted BALB/c mouse assessed as body weight loss at 25 mg/kg, ip administered 5 days per week for 2.5 weeks; type: organism-based, HCT-116; parameters: dose 25 mg/kg, route intraperitoneal; conditions: in vivo
HCT-116 [18] = experiment: Antitumor activity against human HCT116 cells xenografted BALB/c mouse assessed as tumor growth inhibition at 60 mg/kg, ip administered for 5 days per week for 2.5 weeks; conditions: HCT-116, ip, read-out: TGI
[19] = Clearance in Sprague-Dawley rat plasma at 3 mg/kg, iv; type: ADME, organism-based; parameters: dose 3 mg/kg, route intravenous
Plasma [20] = experiment: Stability in human plasma at 5 uM after 24 hrs; type: ADME, cell-free
Plasma [21] = experiment: Stability in mouse plasma at 5 uM after 24 hrs; type: ADME, cell-free
Plasma [22] = experiment: Stability in rat plasma at 5 uM after 24 hrs; type: ADME, cell-free
Plasma [23] = experiment: Stability in dog plasma at 5 uM after 24 hrs; type: ADME, cell-free, Canis lupus familiaris
[24] = AUC (0 to infinity) in Sprague-Dawley rat at 3 mg/kg, iv; type: ADME, organism-based; parameters: dose 3 mg/kg, route intravenous, time infinity; conditions: plasma
[25] = biological target: T5, Histone deacetylase 8 (Homo sapiens) (UniProt Q9BY41); conditions: 10 uM
T5 sequence (whole entry): T4 sequence (Q9BY41 whole entry)
Description: Inhibition of HDAC8 expressed in Escherichia coli at 10 uM

[26] = biological target: T6, Protein deacetylase HDAC6 (Homo sapiens) (UniProt Q9UBN7); experiment: Inhibition of HDAC6 at 10 uM
T6 sequence (whole entry): T3 sequence (Q9UBN7 whole entry)

Mus musculus [27] = experiment: Toxicity against human HCT116 cells xenografted BALB/c mouse assessed as body weight loss at 100 mg/kg, ip administered 5 days per week for 2.5 weeks; type: organism-based, HCT-116; parameters: dose 100 mg/kg, route intraperitoneal; conditions: in vivo

Chain of Histone deacetylase 1 (Q13547 whole entry): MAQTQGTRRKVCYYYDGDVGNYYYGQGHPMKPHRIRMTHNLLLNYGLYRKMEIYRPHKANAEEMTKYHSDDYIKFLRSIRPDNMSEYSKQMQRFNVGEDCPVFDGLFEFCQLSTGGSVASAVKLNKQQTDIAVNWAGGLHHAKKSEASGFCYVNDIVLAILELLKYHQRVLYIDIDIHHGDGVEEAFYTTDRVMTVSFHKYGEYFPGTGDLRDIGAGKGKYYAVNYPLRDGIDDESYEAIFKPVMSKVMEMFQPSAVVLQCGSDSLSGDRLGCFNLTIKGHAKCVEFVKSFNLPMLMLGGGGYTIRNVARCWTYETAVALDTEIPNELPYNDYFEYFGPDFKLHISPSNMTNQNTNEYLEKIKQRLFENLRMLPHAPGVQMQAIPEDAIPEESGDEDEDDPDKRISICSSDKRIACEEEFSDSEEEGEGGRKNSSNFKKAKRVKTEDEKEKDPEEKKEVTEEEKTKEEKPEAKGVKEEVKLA
Chain of Histone deacetylase 2 (Q92769 whole entry): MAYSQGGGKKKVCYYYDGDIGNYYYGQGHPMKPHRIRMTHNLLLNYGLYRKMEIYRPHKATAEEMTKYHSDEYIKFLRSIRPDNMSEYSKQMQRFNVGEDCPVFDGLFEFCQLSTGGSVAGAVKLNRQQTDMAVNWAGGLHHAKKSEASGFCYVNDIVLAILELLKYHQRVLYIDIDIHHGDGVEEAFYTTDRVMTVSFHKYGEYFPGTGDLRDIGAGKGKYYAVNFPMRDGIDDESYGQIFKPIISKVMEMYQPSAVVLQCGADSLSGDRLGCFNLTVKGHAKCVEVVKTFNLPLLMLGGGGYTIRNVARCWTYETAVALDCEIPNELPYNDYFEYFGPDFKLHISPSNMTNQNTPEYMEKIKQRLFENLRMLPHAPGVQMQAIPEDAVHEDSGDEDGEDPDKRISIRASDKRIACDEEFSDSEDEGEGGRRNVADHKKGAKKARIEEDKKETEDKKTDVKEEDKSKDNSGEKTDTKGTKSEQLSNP
Chain of Histone deacetylase 5 (Q9UQL6 whole entry): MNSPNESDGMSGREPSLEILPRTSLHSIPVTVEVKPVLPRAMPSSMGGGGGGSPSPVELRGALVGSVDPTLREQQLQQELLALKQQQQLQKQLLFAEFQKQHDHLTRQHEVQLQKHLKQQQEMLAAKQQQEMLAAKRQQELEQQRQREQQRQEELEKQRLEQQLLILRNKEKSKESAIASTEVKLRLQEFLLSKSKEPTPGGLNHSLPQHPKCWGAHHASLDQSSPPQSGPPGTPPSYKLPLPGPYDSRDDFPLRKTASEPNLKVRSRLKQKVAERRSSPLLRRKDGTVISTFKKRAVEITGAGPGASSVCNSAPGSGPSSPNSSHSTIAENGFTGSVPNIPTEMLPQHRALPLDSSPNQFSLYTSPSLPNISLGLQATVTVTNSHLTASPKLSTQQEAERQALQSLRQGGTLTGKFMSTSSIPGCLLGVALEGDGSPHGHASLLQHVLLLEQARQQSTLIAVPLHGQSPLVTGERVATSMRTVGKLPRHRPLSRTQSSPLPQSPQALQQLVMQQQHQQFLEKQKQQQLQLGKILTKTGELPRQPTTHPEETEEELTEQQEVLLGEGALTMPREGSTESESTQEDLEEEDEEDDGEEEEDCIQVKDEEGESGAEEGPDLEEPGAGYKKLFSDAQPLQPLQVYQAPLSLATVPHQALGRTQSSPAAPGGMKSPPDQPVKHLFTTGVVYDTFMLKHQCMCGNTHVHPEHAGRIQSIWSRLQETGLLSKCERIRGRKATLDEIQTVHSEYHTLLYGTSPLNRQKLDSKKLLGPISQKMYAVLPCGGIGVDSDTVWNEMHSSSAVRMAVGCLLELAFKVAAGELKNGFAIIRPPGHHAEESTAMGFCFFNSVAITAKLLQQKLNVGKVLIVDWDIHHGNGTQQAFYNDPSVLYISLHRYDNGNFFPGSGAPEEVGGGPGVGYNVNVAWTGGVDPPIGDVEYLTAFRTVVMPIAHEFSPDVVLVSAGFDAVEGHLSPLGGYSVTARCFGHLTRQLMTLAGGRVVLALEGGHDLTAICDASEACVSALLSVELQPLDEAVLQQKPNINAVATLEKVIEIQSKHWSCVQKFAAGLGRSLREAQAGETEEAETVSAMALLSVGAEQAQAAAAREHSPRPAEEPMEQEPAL
Chain of Histone deacetylase 3 (O15379 whole entry): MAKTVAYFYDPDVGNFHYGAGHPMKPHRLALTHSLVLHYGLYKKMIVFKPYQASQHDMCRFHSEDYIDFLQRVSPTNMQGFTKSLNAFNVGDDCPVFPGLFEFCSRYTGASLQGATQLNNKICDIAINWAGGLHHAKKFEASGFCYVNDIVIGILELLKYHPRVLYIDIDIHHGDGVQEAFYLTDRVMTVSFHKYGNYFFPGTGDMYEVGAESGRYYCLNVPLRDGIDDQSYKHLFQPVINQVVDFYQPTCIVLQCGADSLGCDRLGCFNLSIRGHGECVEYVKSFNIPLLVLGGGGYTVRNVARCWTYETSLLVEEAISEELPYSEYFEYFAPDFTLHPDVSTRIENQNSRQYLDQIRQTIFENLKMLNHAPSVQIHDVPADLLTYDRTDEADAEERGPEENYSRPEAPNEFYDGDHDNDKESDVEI

Row | SMILES | IC50 (Histone deacetylase 1) [nM] | Stability (Plasma [1]) | IC50 (Histone deacetylase 3) [nM] | IC50 (HeLa) [nM] | IC50 (HCT-116 [2]) [nM] | Stability (Plasma [3]) | IC50 (A549) [nM] | IC50 (Histone deacetylase 4 [4]) [nM] | IC50 (Histone deacetylase 4 [5]) [nM] | IC50 (Histone deacetylase 5) [nM] | MTD [12] [mg/kg] | Stability (Plasma [13]) | IC50 (G-401) [nM] | IC50 (Histone deacetylase 2) [nM] | IC50 [14] [nM] | IC50 (Histone deacetylase 7) [nM] | IC50 (A2780) [nM] | Stability (Plasma [15]) | IC50 [16] [nM] | IC50 (Histone deacetylase 8) [nM] | further results
1 | COc1ccc2[nH]c(C)c(CC(=O)N[C@@H](CCCCCC(C)=O)c3ncc(-c4ccccc4)[nH]3)c2c1 | 59 | Stable | 120 | 880 | 500 | Stable | 6300 | 6000 | > 10000 | > 10000 | 60 | Stable | 960 | 110 | 16000 | > 10000 | 2200 | Stable | 340 | > 5000 | half-life [6]: 1.3 h; bioavailability [7]: 15%; Activity (Mus musculus [8]): < 10%; clearance [9]: 80 mL/min/kg; microsomal CLint [10]: > 400 µL/min/mg; microsomal CLint [11]: > 400 µL/min/mg
2 | Nc1ccccc1NC(=O)c1ccc(CNC(=O)OCc2cccnc2)cc1 [ENTINOSTAT] | – | – | – | – | 700 | – | 1200 | – | – | – | 25 | – | 1300 | – | > 20000 | – | 3000 | – | – | – | Activity (Mus musculus [17]): < 10%; inhibition in vivo at 60 mg/kg (HCT-116 [18]): 69%
3 | CC(=O)CCCCC[C@H](NC(=O)CCN1CCCCC1)C(=O)Nc1cnc2ccccc2c1.Cl.Cl | 140 | – | – | 2000 | – | – | – | – | – | – | – | – | – | – | – | – | – | – | – | – | clearance [19]: > 150 mL/min/kg; Stability (Plasma [20]): Stable; Activity (Plasma [21]): Not Active; Activity (Plasma [22]): Not Active; Stability (Plasma [23]): Stable; AUC(0-inf) [24]: 0.05 µM·h
4 | CCC(=O)CCCCC[C@H](NC(=O)Cc1c(C)[nH]c2ccc(OC)cc12)c1ncc(-c2ccccc2)[nH]1 | 26 | – | 48 | 340 | 330 | – | 5200 | > 10000 | > 10000 | > 10000 | – | – | 250 | 59 | 5300 | > 10000 | 420 | – | – | – | inhibition [25]: 40%; inhibition [26]: 40%
5 | O=C(CCCCCCC(=O)Nc1ccccc1)NO [VORINOSTAT] | – | – | – | – | – | – | – | – | – | – | – | – | – | – | – | – | – | – | – | – | Activity (Mus musculus [27]): < 10%
6 | COc1ccc2[nH]c(C)c(CC(=O)N[C@@H](CCCCCC(C)=O)c3nc4ccc(Cl)cc4[nH]3)c2c1 | 670 | Stable | 1000 | 3100 | 4200 | Stable | 8200 | 4200 | > 10000 | > 10000 | – | Stable | 7500 | 880 | 41000 | > 10000 | 11000 | Stable | 970 | > 10000 | –
